Our source for the TGI values is PubChem BioAssay (NCI).

Test systems include SNB-75 CNS; CCRF-CEM leukemia; HS 578T breast; UACC-62 melanoma; MDA-N; EKVX NSCLC; A498 renal; HCC-2998 colon; HOP-62 NSCLC; SW-620 colon; OVCAR-8 ovarian; HCT-116 colon; DU-145 prostate; 786-0 renal; A549 NSCLC; SK-MEL-2 melanoma.
What all share (assay): growth of human tumour cells (NCI), 48 h

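Five concentrations, 48 hours, 96-well plates. The concentration for full growth arrest is given as TGI.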

For `O=C(NNC(=S)Nc1ccc(Cl)cc1)C12CC3CC(CC(C3)C1)C2`, the TGI worked out at 51.1 µM in the assay on SNB-75 CNS; 11.6 µM in the assay on CCRF-CEM leukemia; 83 µM in the assay with HS 578T breast; 21.8 µM with UACC-62 melanoma; 43.6 µM with MDA-N; 55 µM in the assay on EKVX NSCLC. Moreover, the TGI in the assay on A498 renal is 22.9 µM; in the assay with HCC-2998 colon it was 27 µM; in the assay with HOP-62 NSCLC, 29.7 µM; with SW-620 colon it was 35.6 µM; with OVCAR-8 ovarian, over 44.6 µM; with HCT-116 colon, 9.26 µM. Besides, the TGI in the assay on DU-145 prostate was 43.6 µM; with 786-0 renal, over 58 µM; with A549 NSCLC it was 24.9 µM; in the assay on SK-MEL-2 melanoma it was 38.2 µM.

For `O=C(c1cc(Cl)cc(Cl)c1)N(Cc1cccnc1)C(=S)N(Cc1cccnc1)C(=O)c1cc(Cl)cc(Cl)c1`, the TGI in the assay with SNB-75 CNS, in the assay with CCRF-CEM leukemia, in the assay on HS 578T breast, in the assay on UACC-62 melanoma, in the assay with MDA-N and with EKVX NSCLC was over 100 µM each time. Besides, the TGI was 81.2 µM with A498 renal; 49.6 µM with HCC-2998 colon; 75.1 µM in the assay on HOP-62 NSCLC; over 100 µM in the assay with SW-620 colon; 79.5 µM in the assay on OVCAR-8 ovarian; 96.5 µM with HCT-116 colon. In addition, the TGI in the assay on DU-145 prostate was over 100 µM; in the assay on 786-0 renal, 73.8 µM; with A549 NSCLC, over 100 µM; in the assay with SK-MEL-2 melanoma, 99.2 µM.

As to `CC(C)C1CC(CO)(CNc2nc(N)nc(Cl)c2/C=N\O)C1` (centres undefined), the TGI in the assay with SNB-75 CNS was 43.6 µM; with CCRF-CEM leukemia it was over 79.2 µM; in the assay with HS 578T breast, 53.8 µM; in the assay with UACC-62 melanoma, 25.4 µM; in the assay with MDA-N it was 23.9 µM; with EKVX NSCLC it was 11.7 µM. Also, the TGI was 34.6 µM in the assay with A498 renal; 17.8 µM in the assay with HCC-2998 colon; over 100 µM in the assay with HOP-62 NSCLC; 61.2 µM in the assay on SW-620 colon; 50.3 µM with OVCAR-8 ovarian; 34 µM in the assay on HCT-116 colon. The TGI with DU-145 prostate was over 100 µM; in the assay on 786-0 renal it was 46.4 µM; with A549 NSCLC, 18.8 µM; in the assay with SK-MEL-2 melanoma, 26.5 µM.

For the compound `CN1C(=O)N/C(=C\c2ccc(S(=O)(=O)N/N=C/c3ccccc3)cc2)C1=O`, the TGI in the assay on SNB-75 CNS, with CCRF-CEM leukemia, with HS 578T breast, in the assay with UACC-62 melanoma, with MDA-N and in the assay with EKVX NSCLC was over 100 µM each time. In addition, the TGI in the assay on A498 renal, in the assay with HCC-2998 colon, with HOP-62 NSCLC, with SW-620 colon, in the assay on OVCAR-8 ovarian and in the assay with HCT-116 colon was over 100 µM each time. Moreover, the TGI in the assay with DU-145 prostate, with 786-0 renal, in the assay on A549 NSCLC and in the assay on SK-MEL-2 melanoma was over 100 µM each time.

Regarding `COC(=O)[C@H](C)NC(=O)C1(CNC(=O)[C@H](C)NC(=O)OC(C)(C)C)Cc2ccccc2-c2ccccc2C1`, the TGI is over 60.2 µM with SNB-75 CNS; 43.9 µM in the assay on CCRF-CEM leukemia; over 60.1 µM in the assay with HS 578T breast; 34 µM in the assay on UACC-62 melanoma; over 58.5 µM with MDA-N; 47 µM in the assay with EKVX NSCLC. Further, the TGI with A498 renal is over 71.1 µM; in the assay on HCC-2998 colon it was over 59.8 µM; with HOP-62 NSCLC, over 100 µM; in the assay with SW-620 colon it was over 64.3 µM; with OVCAR-8 ovarian, 18.2 µM; in the assay on HCT-116 colon, over 54.1 µM. For the same compound, the TGI was over 42.7 µM in the assay on DU-145 prostate, 36.4 µM with 786-0 renal, 48.8 µM in the assay on A549 NSCLC and over 68.9 µM in the assay with SK-MEL-2 melanoma.

`CCOC(=O)NC(Nc1ccc(S(=O)(=O)Nc2ccc(OC)nn2)cc1)(C(F)(F)F)C(F)(F)F`: the TGI in the assay with SNB-75 CNS was over 100 µM; in the assay on CCRF-CEM leukemia, 70.4 µM; in the assay on HS 578T breast it was over 100 µM; in the assay on UACC-62 melanoma it was over 100 µM; with MDA-N, over 100 µM; in the assay on EKVX NSCLC, over 100 µM. Also, the TGI is 54.6 µM with A498 renal; over 100 µM in the assay on HCC-2998 colon; 59.6 µM in the assay with HOP-62 NSCLC; over 100 µM in the assay on SW-620 colon; over 100 µM with OVCAR-8 ovarian; 44.5 µM in the assay on HCT-116 colon. Moreover, the TGI in the assay with DU-145 prostate is over 100 µM; in the assay on 786-0 renal it was 59 µM; with A549 NSCLC it was over 100 µM.

As for `C=C1C2C[C@@H]3O[C@H]4C[C@H]5O[C@@]6(C[C@@H]7O[C@]8(C[C@H](C)[C@@H]9O[C@@H]%10CC(C=O)O[C@@H]%10C[C@@H]9O8)C[C@H](C)[C@@H]7O6)C[C@H]5O[C@H]4[C@H](C)[C@H]3OC(=O)C[C@H]3CC[C@@H]4OC5[C@H]6O[C@]7(CC[C@H]8CC(=C)[C@H](CC[C@@H](C[C@H]1C)O2)O8)CC6O[C@@H]5[C@@H](O7)[C@H]4O3` (some centres undefined), the TGI was over 1 µM with SNB-75 CNS; under 0.0001 µM with HS 578T breast; over 1 µM with UACC-62 melanoma; under 0.0001 µM in the assay on MDA-N; over 1 µM in the assay on EKVX NSCLC; over 1 µM with A498 renal. Besides, the TGI in the assay with HCC-2998 colon was over 1 µM; with HOP-62 NSCLC, over 1 µM; in the assay with SW-620 colon it was over 1 µM; with HCT-116 colon, over 1 µM; in the assay with DU-145 prostate it was over 1 µM; in the assay with 786-0 renal, 0.971 µM. Besides, the TGI in the assay with A549 NSCLC was over 1 µM.

In the case of `CCCCCCCCCC(=O)NCCc1c[nH]c2ccc(OC)cc12`, the TGI in the assay with SNB-75 CNS was determined as 44 µM; with CCRF-CEM leukemia, 37.5 µM; with HS 578T breast, 42.8 µM; with UACC-62 melanoma it was 30.4 µM; in the assay on MDA-N it was 35.5 µM; in the assay with EKVX NSCLC, 89.8 µM. The TGI turned out to be 29.9 µM with A498 renal; 36.1 µM with HCC-2998 colon; 31.1 µM in the assay on HOP-62 NSCLC; 34.5 µM in the assay with SW-620 colon; 32 µM with OVCAR-8 ovarian; 43.5 µM with HCT-116 colon. For the same compound, the TGI was 42.1 µM with DU-145 prostate, 38.7 µM with 786-0 renal, 40.1 µM with A549 NSCLC and 30.5 µM in the assay on SK-MEL-2 melanoma.
